Columns and labels:
[1] = test system: Stearns strain of B. anthracis; assay type: cell-based, Bacillus anthracis
[2] = test system: Ames strain of B. anthracis; assay type: cell-based, Bacillus anthracis
[3] = test system: Six strains of Bacillus species; experiment: Nathans Agar Well Diffusion technique, 3 replicate assays; assay type: cell-based; details: for average zone of inhibition: average over Bacillus strains tested
S. aureus = experiment: d-limonene inoculation assay (phenol-coefficient), subculture at 24/48/72 hr; assay type: cell-based, Staphylococcus aureus; parameters: key: NG = no growth; details: >10^5 CFU/ml in 2 ml d-limonene
S. epidermidis = experiment: as above; assay type: cell-based, Staphylococcus epidermidis; parameters: key: NG = no growth; details: >10^5 CFU/ml in 2 ml d-limonene
E. faecalis = experiment: as above; assay type: cell-based, Enterococcus faecalis; parameters: key: NG = no growth; details: >10^5 CFU/ml in 2 ml d-limonene
E. faecium = experiment: as above; assay type: cell-based, Enterococcus faecium; parameters: key: NG = no growth; details: >10^5 CFU/ml in 2 ml d-limonene
E. coli = experiment: as above; assay type: cell-based, Escherichia coli; parameters: key: NG = no growth; details: >10^5 CFU/ml in 2 ml d-limonene
Ent. cloacae = assay type: cell-based, Enterobacter cloacae; parameters: key: NG = no growth
K. pneumoniae = experiment: d-limonene inoculation assay (phenol-coefficient), subculture at 24/48/72 hr; assay type: cell-based, Klebsiella pneumoniae; parameters: key: NG = no growth; details: >10^5 CFU/ml in 2 ml d-limonene
S. marcescens = assay type: cell-based, Serratia marcescens; parameters: key: NG = no growth
P. aeruginosa = experiment: d-limonene inoculation assay (phenol-coefficient), subculture at 24/48/72 hr; assay type: cell-based, Pseudomonas aeruginosa; parameters: key: NG = no growth; details: >10^5 CFU/ml in 2 ml d-limonene
Ac. baum/haemo = experiment: as above; assay type: cell-based, Acinetobacter baummii/haemolyticus; parameters: key: NG = no growth; details: >10^5 CFU/ml in 2 ml d-limonene
S. maltophilia = assay type: cell-based, Stenotrophomonas maltophila; parameters: key: NG = no growth
Streptococcus pyogenes = assay type: cell-based
Streptococcus mutans = assay type: cell-based
[4] = test system: other beta hemolytic streptococci; assay type: cell-based

O=[N+]([O-])[O-].[Ag+] [AgNO3, silver nitrate]
average inhibition zone [1]: 18 mm | zone of inhibition [2]: 16 mm | average zone of inhibition [3]: 16 mm

C/C(=C\C(=O)OCCCCCCCCC(=O)O)C[C@@H]1OC[C@H](C[C@@H]2O[C@H]2[C@@H](C)[C@H](C)O)[C@@H](O)[C@H]1O [Bactroban]
average inhibition zone [1]: 45 mm | susceptibility of the strain to the product [1]: susceptible | susceptibility of the strain to the product [2]: susceptible | zone of inhibition [2]: 35 mm | average zone of inhibition [3]: 46 mm

NC(=O)N/N=C/c1ccc([N+](=O)[O-])o1 [Furacin, nitrofurazone]
average inhibition zone [1]: 33 mm | average zone of inhibition [3]: 35 mm

OCl [NaOCl, sodium hypochlorite]
susceptibility of the strain to the product [1]: susceptible to all products tested except | zone of inhibition [2]: no zones of inhibition | average zone size ([3]; only inhibited P. polymyxa, B. sphaericus and B. cereus): 16 mm

C=C(C)[C@H]1CC=C(C)CC1 [d-limonene]
Growth at 24 hr (S. aureus; 24 hr): NG* | Growth at 48 hr (S. aureus; 48 hr): NG | Growth at 72 hr (S. aureus; 72 hr): NG | Growth at 24 hr (S. epidermidis; 24 hr): NG | Growth at 48 hr (S. epidermidis; 48 hr): NG | Growth at 72 hr (S. epidermidis; 72 hr): NG | Growth at 24 hr (E. faecalis; 24 hr): NG | Growth at 48 hr (E. faecalis; 48 hr): NG | Growth at 72 hr (E. faecalis; 72 hr): NG | Growth at 24 hr (E. faecium; 24 hr): NG | Growth at 48 hr (E. faecium; 48 hr): NG | Growth at 72 hr (E. faecium; 72 hr): NG | Growth at 24 hr (E. coli; 24 hr): NG | Growth at 48 hr (E. coli; 48 hr): NG | Growth at 72 hr (E. coli; 72 hr): NG | Growth at 24 hr (Ent. cloacae; 24 hr): NG | Growth at 48 hr (Ent. cloacae; 48 hr): NG | Growth at 72 hr (Ent. cloacae; 72 hr): NG | Growth at 24 hr (K. pneumoniae; 24 hr): NG | Growth at 48 hr (K. pneumoniae; 48 hr): NG | Growth at 72 hr (K. pneumoniae; 72 hr): NG | Growth at 24 hr (S. marcescens; 24 hr): NG* | Growth at 48 hr (S. marcescens; 48 hr): NG | Growth at 72 hr (S. marcescens; 72 hr): NG | Growth at 24 hr (P. aeruginosa; 24 hr): NG | Growth at 48 hr (P. aeruginosa; 48 hr): NG | Growth at 72 hr (P. aeruginosa; 72 hr): NG | Growth at 24 hr (Ac. baum/haemo; 24 hr): NG | Growth at 48 hr (Ac. baum/haemo; 48 hr): NG | Growth at 72 hr (Ac. baum/haemo; 72 hr): NG | Growth at 24 hr (S. maltophilia; 24 hr): NG | Growth at 48 hr (S. maltophilia; 48 hr): NG | Growth at 72 hr (S. maltophilia; 72 hr): NG | average inhibition zone [1]: 30 mm | zone of inhibition [2]: 21 mm | average zone of inhibition [3]: 21 mm | eradication of the pathogen (Streptococcus pyogenes): effective in eradicating | eradication of the pathogen (Streptococcus mutans): effective in eradicating | eradication of the pathogen [4]: effective in eradicating

NCc1ccc(S(N)(=O)=O)cc1 [mafenide acetate]
average inhibition zone [1]: 38 mm | susceptibility of the strain to the product [1]: susceptible | susceptibility of the strain to the product [2]: susceptible | zone of inhibition [2]: 34 mm | average zone of inhibition [3]: 36 mm

— patent publication US20040076590A1, “Antibacterial toothpaste and mouthwash formulations” (priority 2002, published 2004)
